According to patent US20190367448A1, “TREATMENT OF SLEEP-WAKE DISORDERS” (SK Biopharmaceuticals Co., Ltd., priority 2005, published 2019):

Experiments:
Rats = assay: Spontaneous Locomotor Activity in Mice and Rats model (rats); format: in vivo, rat
[1] = tested on: male adult Sprague Dawley rats; assay: Sleep-wake organization in rats, polysomnographic recording (EEG, EOG, EMG, body movement) for 16 hours after acute i.p. administration; format: in vivo, rat; settings: rats; for Duration (min) Active wake / Duration (min) Deep sleep / Duration (min) Light sleep / Duration (min) Passive wake / Duration (min) REM sleep / Duration (min) intermediate stage / ISWS/TST (%) / Latency (min) ISWS / Latency (min) REM sleep / Latency (min) dSWS / REMS/TST (%) / Shifts (number) Shift from ISWS to AW / Shifts (number) Shift from ISWS to PW / Shifts (number) Shift from REMS to AW / Shifts (number) Shift from REMS to PW / Shifts (number) Shift from dSWS to AW / Shifts (number) Shift from dSWS to PW / Total sleep time TST / dSWS/TST (%): 16 hours recording period
Mice = assay: Spontaneous Locomotor Activity in Mice and Rats model (mice); format: in vivo, mouse
[2] = 3 mg/kg i.p., 16 hours recording
[3] = 10 mg/kg i.p., first 90 minutes of the recording period
[4] = 30 mg/kg i.p., 16 hours recording
[5] = 30 mg/kg i.p., vs vehicle, 16-h post-injection period

NC(=O)OCC(N)Cc1ccccc1 [R228060, (R)-(beta-amino-benzenepropyl) carbamate]
Spontaneous Locomotor Activity (Rats): stimulant or energizing effects
increased drive to wakefulness from deep sleep [1, 2]: +15%
increased drive to wakefulness from light sleep [1, 2]: +46%
Duration (min) Active wake ([1]; 3 mg/kg i.p.): 290.0 min
Duration (min) Deep sleep ([1]; 3 mg/kg i.p.): 125.0 min
Duration (min) Light sleep ([1]; 3 mg/kg i.p.): 374.7 min
Duration (min) Passive wake ([1]; 3 mg/kg i.p.): 79.5 min
Duration (min) REM sleep ([1]; 3 mg/kg i.p.): 84.0 min
Duration (min) intermediate stage ([1]; 3 mg/kg i.p.): 2.9 min
ISWS/TST (%) ([1]; 3 mg/kg i.p.): 64.3 ± 3.3%
Latency (min) ISWS ([1]; 3 mg/kg i.p.): 15.6 ± 4.1 min
Latency (min) REM sleep ([1]; 3 mg/kg i.p.): 66.0 ± 11.8 min
Latency (min) dSWS ([1]; 3 mg/kg i.p.): 42.0 ± 8.5 min
REMS/TST (%) ([1]; 3 mg/kg i.p.): 14.4 ± 1.0%
Shifts (number) Shift from ISWS to AW ([1]; 3 mg/kg i.p.): 217.8 number
Shifts (number) Shift from ISWS to PW ([1]; 3 mg/kg i.p.): 78.1 number
Shifts (number) Shift from REMS to AW ([1]; 3 mg/kg i.p.): 78.0 number
Shifts (number) Shift from REMS to PW ([1]; 3 mg/kg i.p.): 3.7 number
Shifts (number) Shift from dSWS to AW ([1]; 3 mg/kg i.p.): 9.7 number
Shifts (number) Shift from dSWS to PW ([1]; 3 mg/kg i.p.): 6.6 number
Total sleep time TST ([1]; 3 mg/kg i.p.): 586.6 ± 20.0 min
dSWS/TST (%) ([1]; 3 mg/kg i.p.): 20.8 ± 3.8%
change in total time spent in light sleep ([1]; 3 mg/kg, vs vehicle, 16 hours recording): +26%
increase in shifts from REM sleep towards active wakefulness ([1]; 10 mg/kg i.p., 16 hours recording): +16%
Duration (min) Active wake ([1]; 10 mg/kg i.p.): 305.5 min
Duration (min) Deep sleep ([1]; 10 mg/kg i.p.): 104.0 min
Duration (min) Light sleep ([1]; 10 mg/kg i.p.): 366.6 min
Duration (min) Passive wake ([1]; 10 mg/kg i.p.): 73.4 min
Duration (min) REM sleep ([1]; 10 mg/kg i.p.): 102.3 min
Duration (min) intermediate stage ([1]; 10 mg/kg i.p.): 5.2 min
ISWS/TST (%) ([1]; 10 mg/kg i.p.): 63.5 ± 2.7%
Latency (min) ISWS ([1]; 10 mg/kg i.p.): 30.4 ± 7.9 min
Latency (min) REM sleep ([1]; 10 mg/kg i.p.): 87.5 ± 14.5 min
Latency (min) dSWS ([1]; 10 mg/kg i.p.): 127.2 ± 67.1 min
REMS/TST (%) ([1]; 10 mg/kg i.p.): 17.8 ± 1.0%
Shifts (number) Shift from ISWS to AW ([1]; 10 mg/kg i.p.): 204.5 number
Shifts (number) Shift from ISWS to PW ([1]; 10 mg/kg i.p.): 84.4 number
Shifts (number) Shift from REMS to AW ([1]; 10 mg/kg i.p.): 94.1 number
Shifts (number) Shift from REMS to PW ([1]; 10 mg/kg i.p.): 8.9 number
Shifts (number) Shift from dSWS to AW ([1]; 10 mg/kg i.p.): 4.2 number
Shifts (number) Shift from dSWS to PW ([1]; 10 mg/kg i.p.): 12.5 number
Total sleep time TST ([1]; 10 mg/kg i.p.): 578.1 ± 22.6 min
dSWS/TST (%) ([1]; 10 mg/kg i.p.): 17.7 ± 3.1%
deep sleep duration [1, 3]: significant decrease
time spent in active wakefulness [1, 3]: increase
change in total time spent in light sleep ([1]; 10 mg/kg, vs vehicle, 16 hours recording): +24%
overall profile of effects compared with amphetamine at 1 mg/kg (effect pattern, size and duration) ([1]; 30 mg/kg): remarkably similar
rebound effect (increase in time spent in deep sleep), hours following administration ([1]; 30 mg/kg): 4 to 10 h
mean durations of the sleep wake states (active wakefulness, passive wakefulness, light sleep, REM sleep) ([1]; 30 mg/kg i.p.): not modified
change in number of REM sleep epochs [1, 4]: −24%
change in number of active wake epochs [1, 4]: +19%
change in number of light sleep epochs [1, 4]: −23%
change in number of passive wakefulness epochs [1, 4]: −30%
Duration (min) Active wake ([1]; 30 mg/kg i.p.): 371.6 min
Duration (min) Deep sleep ([1]; 30 mg/kg i.p.): 214.9 min
Duration (min) Light sleep ([1]; 30 mg/kg i.p.): 235.8 min
Duration (min) Passive wake ([1]; 30 mg/kg i.p.): 57.3 min
Duration (min) REM sleep ([1]; 30 mg/kg i.p.): 72.9 min
Duration (min) intermediate stage ([1]; 30 mg/kg i.p.): 4.0 min
ISWS/TST (%) ([1]; 30 mg/kg i.p.): 44.9 ± 2.9%
Latency (min) ISWS ([1]; 30 mg/kg i.p.): 73.6 ± 25.7 min
Latency (min) REM sleep ([1]; 30 mg/kg i.p.): 251.8 ± 32.0 min
Latency (min) dSWS ([1]; 30 mg/kg i.p.): 174.6 ± 12.3 min
REMS/TST (%) ([1]; 30 mg/kg i.p.): 13.7 ± 1.3 %
Shifts (number) Shift from ISWS to AW ([1]; 30 mg/kg i.p.): 221.9 number
Shifts (number) Shift from ISWS to PW ([1]; 30 mg/kg i.p.): 74.2 number
Shifts (number) Shift from REMS to AW ([1]; 30 mg/kg i.p.): 65.1 number
Shifts (number) Shift from REMS to PW ([1]; 30 mg/kg i.p.): 4.1 number
Shifts (number) Shift from dSWS to AW ([1]; 30 mg/kg i.p.): 8.7 number
Shifts (number) Shift from dSWS to PW ([1]; 30 mg/kg i.p.): 17.6 number
Total sleep time TST ([1]; 30 mg/kg i.p.): 527.0 ± 7.9 min
dSWS/TST (%) ([1]; 30 mg/kg i.p.): 39.2 ± 2.9 %
active wakefulness ([1]; 30 mg/kg i.p., first 3 hours following the administration): significant enhancement
change in total time spent in REM sleep [1, 5]: −25%
change in total time spent in active wakefulness [1, 5]: +19%
change in total time spent in light sleep [1, 5]: −20%
change in total time spent in passive wakefulness [1, 5]: −29%
active wakefulness at the expense of time spent in light sleep, deep sleep and REM sleep ([1]; 30 mg/kg, first 3 to 4 hours after the administration): strongly increased
changes in vigilance states ([1]; 3 and 10 mg/kg): Minor changes
duration of central activity ([1]; after intraperitoneal injection): at least 4 hours
peak in effect, time post administration ([1]; i.p.): around 2 hours
onset of activity ([1]; i.p., time following administration): ~30 min
Spontaneous Locomotor Activity (Mice): stimulant or energizing effects
